Source: patent publication US12031087B2, “Oxygenated solvents for improved production of oil and gas” (Board of Regents, The University of Texas System, priority 2019, dated 2024)
Read-outs that look alike come from different tables or passages of the source.

Assays:
[1] = Excerpt: Experimental Procedure for Flooding/Soaking Experiments. […] This section describes the preparation of the tight cores and the flooding/soaking experiments. Properties of the tight carbonate cores and the injection scheme for two flooding/soaking experiments are also summarized in this section.
Rocherons carbonate cores (Kocurek Industries Inc.) were used in this research. […] In this research, 11 core pieces were saturated only by crude oil and 5 core pieces were saturated by both crude oil and reservoir brine at room temperature. To saturate core pieces by crude oil, they were placed in an accumulator, which was evacuated for at least 24 hours. […] The weights of the core pieces were measured before and after saturating by crude oil to quantify the oil volume in the cores. The volume so determined was assumed to be the accessible pore volume (PV) of the core. […] It consists of an accumulator for reservoir brine, a pump, a Hassler-type core-holder, a hydraulic manual pump to maintain the overburden pressure and cylinders. Before brine injection, the inlet tubing of the coreholder was evacuated for 10 seconds to prevent injecting air into the core. The core was flooded by brine until the injected brine volume exceeded the accessible pore volume. […] The weights of the core pieces were measured after they were re-saturated by the crude oil. The brine and oil volumes in the core pieces were calculated by the following equations. […] Then, oil and brine saturations in each core piece can be calculated. Table 19 presents the properties of the core pieces, including the length of each core piece, accessible pore volume, and oil and brine saturations. Core pieces #1-#5 in Table 19 were saturated by both brine and oil.
An artificial fracture was created along the longitudinal axis using an electric saw for each core piece. Teflon spacers with 0.001 m in width were placed along two edges of the fracture to maintain a fracture aperture. Then, the core halves were carefully put together with the Teflon spacers placed in the fracture, wrapped with a Teflon tube and placed inside a horizontally-oriented core holder, with the fracture vertically-oriented. Teflon spacer was not placed in the space between core pieces. […] When assembling the core pieces for Case 1, core pieces were put so that oil saturation changes monotonically. Qualitatively, the longitudinal fracture served as a propped fracture and the fractures normal to it served as unpropped fractures in terms of hydraulic paths.
FIG. 59 presents a schematic of the experimental set-up for the flooding/soaking experiment. […] Then, the system was evacuated for 10 seconds to remove any air trapped in the fractures. After that, the core was flooded with crude oil to measure the fracture permeability by using the flow rate of 500 cm^3/hr under certain overburden pressure. Table 20 provides the pressure drops along the cores at a certain flow rate and the overburden pressures used.
During flooding/soaking experiments, the RB was injected at 6 ml/hr until no more oil production was observed. Then, the surfactant solution was injected at 6 ml/hr to fill the volume from the inlet of the coreholder until the outlet line of the coreholder, which was followed by a 10-hour soaking period. After that, the surfactant solution was injected at 6 ml/hr to chase the fluid in the system and to recover the produced oil during the first soaking period. The system was then shut-in for a second 10-hour soaking period. RB was then injected at 6 ml/hr to chase the fluid in the system and to recover the produced oil during the second soaking period. Finally, the system was shut-in for a 12-hour soaking period, followed by RB injection to chase the fluid in the system until no oil production.
The effluent was collected in plastic graduating cylinders at room temperature.

[2] = Coreflooding of fractured cores, vertical (Example 2)
Method: Experimental Procedure for Coreflooding. […] The Indiana limestone cores have the common dimensions with a diameter of 0.0254 m and a length of 0.127 m. The cores were saturated with RB first and then oil, during which the core properties were measured, such as porosity, permeability, and water and oil saturations.
It includes an accumulator for crude oil, a pump, a Hassler-type core holder, a hydraulic manual pump to maintain the overburden pressure, a differential pressure gauge, cylinders, and an oven. After a core was placed in the core holder, oil was injected into the cores at 100 cm^3/h and 347 K until no water production was observed.
An artificial fracture was created along the longitudinal axis using an electric saw for each core (FIG. 20). By following the procedure of Mejia, Teflon spacers with 0.001 m in width and 0.127 m in length were placed along two edges of the fracture to maintain a fracture aperture. Then, the core halves were carefully put together with the Teflon spacers in the fracture, wrapped with a Teflon tube, and placed inside a vertically oriented coreholder.
FIG. 21 provides a schematic of the experimental setup for coreflooding. It consists of accumulators for crude oil, RB, and chemical solution (3-pentanone or surfactant), a pump, a Hassler-type core holder, a hydraulic manual pump to maintain the overburden pressure, a differential pressure gauge, cylinders, and an oven. […] After a fractured core was placed in the coreholder, the oven temperature was increased to reservoir temperature (347 K). Then, the core was flooded with crude oil to remove any gas inside the fracture and measure the fracture permeability using the flow rate of 900 cm^3/h. The overburden pressure was adjusted so that all cores used in this research had similar fracture apertures and fracture permeabilities.
Fracture permeabilities were calculated. The equation for flow between parallel plates b=(3πdke)^1/3 was used to estimate a fracture aperture, where b is the fracture aperture, d is the core diameter, and ke is the effective oil permeability of the fractured core. […] Af and Am are cross-sectional areas of the fracture and matrix, respectively. kf and km are permeabilities of the fracture and matrix, respectively.
The initial RB stage was at 6 cm^3/h for 1.5 pore volumes injected (PVI), then at 0.05 cm^3/h for 0.3-0.4 PVI, and at 6 cm^3/h until there was no oil production. After that, a chemical slug (3-pentanone or surfactant) was injected at 0.6 cm^3/h for 1.6 PVI. Finally, the chase RB was injected at 0.6 cm^3/h. […] However, it was terminated after 1.2 PVI of the chase RB for core 1 because of operational constraints.
The coreflood effluent was collected in plastic graduating cylinders at room temperature. To correct the oil recovery factor for 3-pentanone solubility in oil, the 3-pentanone concentration in recovered oil was measured by the proton nuclear magnetic resonance (H NMR) method for the chemical slug and chase RB flooding periods for core 1.

[3] = 347 K
Excerpt: Contact Angle Experiments. […] The procedure largely follows that of Example 1, but as explained below, a change to the previous procedure was necessary because it was not possible to continuously monitor oil droplets on the calcite surface with the surfactant solution.
Before the contact angle measurement, the chemical solution and RB were separately degasified at elevated temperatures. Then, oil-aged calcite pieces were placed in RB. Oil droplets were placed on the bottom surface of a calcite piece in the RB glass chamber.
The calcite piece was continued to be placed in the surfactant solution and taken out after 1 day. Then, the calcite piece was rinsed with RB and placed in RB with no surfactant. […] A photo of the oil droplet was taken then. The contact angles of both sides of each oil droplet were measured using onscreen protractor software. An average contact angle and standard deviation were then calculated.

[4] = 24 h after immersion in 1.0 wt % surfactant solution

2-ethylhexanol-4 propylene oxide-15 ethylene oxide [2-EH-4PO-15EO]
total improved oil recovery ([1]; Case 1 (with initial water)): 76.11 % OOIM | Cumulative improved oil recovery factor by surfactant solution ([1]; Case 1 (with initial water), after the 1st soaking period): 0.3348 | Cumulative improved oil recovery factor by surfactant solution ([1]; Case 1 (with initial water), after the 2nd soaking period): 0.6303 | Cumulative improved oil recovery factor by surfactant solution ([1]; Case 1 (with initial water), after the 3rd soaking period): 0.7611 | incremental oil recovery ([1]; Case 1, after the 1st soaking period): 33.48 % OOIM | incremental oil recovery ([1]; Case 1, after the 2nd soaking period): 29.55 % OOIM | incremental oil recovery ([1]; Case 1, after the 3rd soaking period): 13.09 % OOIM | total improved oil recovery ([1]; Case 2 (without initial water)): 78.42 % OOIM | Cumulative improved oil recovery factor by surfactant solution ([1]; Case 2 (without initial water), after the 1st soaking period): 0.3555 | Cumulative improved oil recovery factor by surfactant solution ([1]; Case 2 (without initial water), after the 2nd soaking period): 0.6647 | Cumulative improved oil recovery factor by surfactant solution ([1]; Case 2 (without initial water), after the 3rd soaking period): 0.7842 | incremental oil recovery ([1]; Case 2, after the 1st soaking period): 35.55 % OOIM | incremental oil recovery ([1]; Case 2, after the 2nd soaking period): 30.92 % OOIM | incremental oil recovery ([1]; Case 2, after the 3rd soaking period): 11.95 % OOIM | incremental oil recovery factor, chemical slug stage ([2]; 1.6 PVI slug after first RB flood, 1.1 wt % 3-pentanone in RB (core 1) or 1.0 wt % 2-EH-4PO-15EO in RB (core 2), 347 K): 23.6% | incremental oil recovery factor, chase RB flooding stage ([2]; 7.0 PVI chase RB, core 2, 347 K): 23.7% | total improved oil recovery ([2]; chemical slug + chase RB stages (1.2 PVI chase core 1; 7.0 PVI chase core 2), 347 K): 47.3% | Average contact angle [3, 4]: 47.1 deg | contact angle, left side [3, 4]: 47.5 deg | contact angle, right side [3, 4]: 46.8 deg | Average contact angle ([3]; at the initialization): 134.1 deg | contact angle, left side ([3]; at the initialization): 133.2 deg | contact angle, right side ([3]; at the initialization): 135.1 deg
